The subject of test [1] is A549. In words: Antitumor activity against human A549 cells xenografted athymic BALB/c mouse assessed as reduction in tumor volume at 100 mg/kg/day, po for 28 days. The format is functional. Set-up: scale not given: the % may be the effect or the level left. For orientation: A xenograft is tissue or cells of one species grown in another, often human tumour cells in immunodeficient mice.

For test [2], the system named is A549. The experiment in a line: Cytotoxicity against human A549 cells after 24 hrs by WST8 assay. It counts as functional, cell-based. The note with it: A549, 24 h. Background: Tetrazolium assays rely on reduction of a dye to a coloured formazan, in cell work by metabolically active cells.
The test system of test [3] is HeLa. The experiment in a line: Cytotoxicity against human HeLa cells after 24 hrs by WST8 assay. It counts as functional, cell-based.

Each structure is given as a SMILES string.

The IC50 is the concentration needed to halve the response being measured.

On to `COc1cc(C)c2cc(O[C@@H]3O[C@H](CO)[C@@H](O)[C@H](O)[C@H]3O)c(C)cc2c1C(C)C`, for which the Activity in test [1] amounted to 50%. Moreover, the results for the IC50 in test [2] and in test [3] were 194 µM and 231 µM, respectively.

As to `COc1cc(C)c2cc(OCCO[C@H]3O[C@H](CO)[C@@H](O)[C@H](O)[C@H]3O)c(C)cc2c1C(C)C`, the Activity in test [1] worked out at 25%. Besides, the results for the IC50 in test [2] and in test [3] were 129 µM and 161 µM, respectively.

With `COc1cc(C)c2cc(O)c(C)cc2c1C(C)C` [CADALENE], the IC50 in test [2] was determined as 34.9 µM; in test [3] it was 28.3 µM.
